Assays:
[1] = tested on: rats; assay: Dosage that raised mean arterial pressure 10% in rat; type: in vivo
[2] = tested on: histamine-challenged rats; assay: Nasal airway pressure in histamine-challenged rats; settings: for Nasal airway pressure, Post Drug: 100% dose i.v. two minutes after histamine; for Nasal airway pressure, Post Histamine: after intranasal histamine 50 mM 0.02 ml/nostril, before drug; for Nasal airway pressure, Control: before histamine and drug; for Mean decrease in nasal airway pressure, % Change: post drug vs post histamine
[3] = tested on: Swiss-Webster mice; assay: Locomotor stimulant and depressant effects in mice; settings: mice, i.p.; for locomotor depressant effect (in words) / locomotor stimulant effect (in words): 2-hour session
Procedure: Male Swiss-Webster mice (HSD ND4, Harlan Sprague Dawley, Houston, Tex.) aged 2-3 months were used in these studies. Each dose group consisted of 8 mice. The mice were housed 2 to 4 per cage in 30.4×22.9×15.2 cm clear polycarbonate cages with food and water available ad libitum for at least one week prior to locomotor activity testing. The colony was maintained at 23±1° C., on a normal light-dark cycle beginning at 0700 hr. All testing took place during the light portion of the light-dark cycle.
Horizontal (forward movement) locomotor activity was measured using a standardized, optical activity monitoring system [Model KXYZCM (16), Omnitech Electronics, Columbus, Ohio]. Activity was monitored in forty 40.5×40.5×30.5 cm clear acrylic chambers that where housed in sets of two within larger sound-attenuating chambers. A panel of 16 infrared beams and corresponding photodetectors were spaced 2 cm apart along the sides and 2.4 cm above the floor of each activity chamber. A 7.5-W incandescent light above each chamber provided dim illumination via a rheostat set to 20% of full scale. Fans provided an 80-dB ambient noise level within the chamber.
(+)-Amphetamine was used as a positive control. The total horizontal distance traversed (cm) was recorded at 10 minute intervals for a 2-hour session. Separate groups of 8 mice were assigned to each dose or saline group, and dose-effect testing continued for each compound until maximal stimulant or depressant effects could be estimated. A separate control group was tested along with each compound.
Using TableCurve 2D v2.03 (Jandel Scientific), the mean average total distance traversed (cm/10 min) for that period was fit to a 3-parameter logistic peak function of log10 dose (with the constant set to the mean of the saline group), and the maximum effect estimated from the resulting curve. The ED50 (dose producing ½ maximal stimulant activity) was estimated from a linear regression against log10 dose of the ascending portion of the dose-effect curve. The stimulant efficacy was the peak effect of the compound (cm/10 min) as estimated from the logistic peak function, minus the mean control distance traveled (cm/10 min), and was expressed for each stimulant compound as a ratio to the stimulant efficacy determined for (+)-amphetamine.
The mean average total distance traversed (cm/10 min) for that period were fit to a linear function of log10 dose of the descending portion of the dose-effect curve. […] Efficacy was the ratio of maximal depressant effect to maximum possible depression for each compound (mean average total distance of the control group minus the lowest mean total distance, expressed as a ratio to the control group total distance).
Time course data for each compound were considered in 2-way analyses of variance with dose as a between-group and time as a within-group factor. The dose-effect data were considered in 1-way analyses of variance, and planned individual comparisons were conduced between each dose and the saline control group. Interaction studies were considered in 2-way analyses of variance, with Pretreatment and Test dose as the factors.

[4] = tested on: Sprague Dawley rats; assay: Nasal airway pressure in normal (non-histamine-challenged) rats; settings: for Mean Decrease in Nasal Airway Pressure: i.v.; for Mean decrease in nasal airway pressure, % Change: 100% dose i.v.; for Mean decrease in nasal airway pressure, % Change / Nasal airway pressure, Control: non-histamine-challenged rats; for Nasal airway pressure, Post Drug: after 100% dose (dose raising MAP 10%) into jugular vein; for Nasal airway pressure, Control: before drug
[5] = tested on: New Zealand white rabbits; assay: Intraocular pressure (IOP) after topical application to rabbit eye
[6] = tested on: mongrel dogs; assay: Intravenous dose increasing mean arterial pressure 10% in anesthetized dogs; settings: anesthetized dog, i.v.
[7] = tested on: New Zealand white rabbits; assay: Pupil diameter / mydriasis after topical application to rabbit eye
[8] = 5% of the dose that increased MAP 10%, mean ± SEM
[9] = 10% of the dose that increased MAP 10%
[10] = 50% of the dose that increased MAP 10%
[11] = drug 1% topical, drug treated eye (T), 0.5 hr
[12] = drug 1% topical, drug treated eye (T), 1 hr
[13] = drug 1% topical, drug treated eye (T), 3 hr
[14] = drug 1% topical, drug treated eye (T), 5 hr
[15] = drug 1% topical, drug treated eye (T), −0.5 hr (pre-treatment)
[16] = drug 1% topical, drug treated eye (T), −1 hr (pre-treatment)
[17] = drug 1% topical, untreated contralateral eye (U), 0.5 hr
[18] = drug 1% topical, untreated contralateral eye (U), 1 hr
[19] = drug 1% topical, untreated contralateral eye (U), 3 hr
[20] = drug 1% topical, untreated contralateral eye (U), 5 hr
[21] = drug 1% topical, untreated contralateral eye (U), −0.5 hr (pre-treatment)
[22] = drug 1% topical, untreated contralateral eye (U), −1 hr (pre-treatment), mean ± S.E.
[23] = drug 2% topical, drug treated eye (T), 0.5 hr
[24] = drug 2% topical, drug treated eye (T), 1 hr
[25] = drug 2% topical, drug treated eye (T), 3 hr
[26] = drug 2% topical, drug treated eye (T), 5 hr
[27] = drug 2% topical, drug treated eye (T), −0.5 hr (pre-treatment)
[28] = drug 2% topical, drug treated eye (T), −1 hr (pre-treatment)
[29] = drug 2% topical, untreated contralateral eye (U), 0.5 hr
[30] = drug 2% topical, untreated contralateral eye (U), 1 hr
[31] = drug 2% topical, untreated contralateral eye (U), 3 hr
[32] = drug 2% topical, untreated contralateral eye (U), 5 hr
[33] = drug 2% topical, untreated contralateral eye (U), −0.5 hr (pre-treatment)
[34] = drug 2% topical, untreated contralateral eye (U), −1 hr (pre-treatment)

## CNC[C@H](O)c1cccc(O)c1 [(−)-phenylephrine]
[1]
  Dosage of Enantiomer that Raised Mean Arterial Pressure 10%, Rat: 3 to 5 µg
[2]
  Nasal airway pressure, Post Drug: 10.5 mm water
  Nasal airway pressure, Post Histamine: 13.2 ± 2.1 mm water
  Nasal airway pressure, Control: 7.5 ± 0.5 mm water
  Mean decrease in nasal airway pressure, % Change: −22.3%
[3]
  Depression Potency (ID50, dose resulting in ½ the maximal depressant effect): 2.3 mg/kg
  Depression Time (30-min period following injection in which the maximal depression occurred): 0 to 30 min
  Stimulation Time (30-min period following injection in which the maximal stimulant effect occurred): 60 to 90 min
  locomotor depressant effect (in words): some locomotor depression
  locomotor stimulant effect (in words): Little or no stimulant effects
[4]; [8]
  Mean Decrease in Nasal Airway Pressure: −1.6 ± 0.9 mm water
[4]; [9]
  Mean Decrease in Nasal Airway Pressure: −4.8 ± 0.8 mm water
[4]; 25% of the dose that increased MAP 10%
  Mean Decrease in Nasal Airway Pressure: −12.1 ± 2.4 mm water
[4]; [10]
  Mean Decrease in Nasal Airway Pressure: −5.2 ± 1.6 mm water
[4]
  Mean decrease in nasal airway pressure, % Change: −20.3%
  Nasal airway pressure, Post Drug: 4 ± 0.2 mm H2O
  Nasal airway pressure, Control: 5 ± 0.2 mm H2 O
[5]; [11]
  IOP: 24 ± 0.6 mmHg
[5]; [12]
  IOP: 24 ± 1.0 mmHg
[5]; [13]
  IOP: 23 ± 1.5 mmHg
[5]; [14]
  IOP: 21 ± 1.9 mmHg
[5]; [15]
  IOP: 16 ± 1.5 mmHg
[5]; [16]
  IOP: 20 ± 1.6 mmHg
[5]; [17]
  IOP: 18 ± 1.6 mmHg
[5]; [18]
  IOP: 19 ± 1.3 mmHg
[5]; [19]
  IOP: 20 ± 1.9 mmHg
[5]; [20]
  IOP: 19 ± 1.7 mmHg
[5]; [21]
  IOP: 15 ± 2.1 mmHg
[5]; [22]
  IOP: 16 ± 1.0 mmHg
[5]; [23]
  IOP: 12 ± 0.8 mmHg
[5]; [24]
  IOP: 14 ± 2.0 mmHg
[5]; [25]
  IOP: 16 ± 0.8 mmHg
[5]; [26]
  IOP: 14 ± 1.3 mmHg
[5]; [27]
  IOP: 15 ± 1.5 mmHg
[5]; [28]
  IOP: 18 ± 1.6 mmHg
[5]; [29]
  IOP: 20 ± 2.0 mmHg
[5]; [30]
  IOP: 20 ± 2.4 mmHg
[5]; [31]
  IOP: 14 ± 1.7 mmHg
[5]; [32]
  IOP: 14 ± 2.0 mmHg
[5]; [33]
  IOP: 17 ± 1.9 mmHg
[5]; [34]
  IOP: 17 ± 1.9 mmHg
[6]
  Intravenous Dose Needed to Increase MAP 10%: 0.01 mg/kg
[7]; 1% solution
  Mydriatic Responses, TREATED EYE: ++ (++ = 2-4 mm change)
  Mydriatic Responses, UNTREATED EYE: 0
[7]; 2% solution
  Mydriatic Responses, TREATED EYE: +++ (+++ >4 mm change)
  Mydriatic Responses, UNTREATED EYE: +++ (+++ >4 mm change)
[7]; [11]
  Pupil Diameter: 7 ± 0.4 mm
[7]; [12]
  Pupil Diameter: 9 ± 0.4 mm
[7]; [13]
  Pupil Diameter: 9 ± 0.4 mm
[7]; [14]
  Pupil Diameter: 9 ± 0.4 mm
[7]; [15]
  Pupil Diameter: 6 ± 0.4 mm
[7]; [16]
  Pupil Diameter: 6 ± 0.4 mm
[7]; [17]
  Pupil Diameter: 6 ± 0.4 mm
[7]; [18]
  Pupil Diameter: 6 ± 0.4 mm
[7]; [19]
  Pupil Diameter: 6 ± 0.4 mm
[7]; [20]
  Pupil Diameter: 6 ± 0.4 mm
[7]; [21]
  Pupil Diameter: 6 ± 0.4 mm
[7]; [22]
  Pupil Diameter: 6 ± 0.4 mm
[7]; [23]
  Pupil Diameter: 12 ± 0.2 mm
[7]; [24]
  Pupil Diameter: 12 ± 0.2 mm
[7]; [25]
  Pupil Diameter: 12 ± 0.2 mm
[7]; [26]
  Pupil Diameter: 12 ± 0.2 mm
[7]; [27]
  Pupil Diameter: 6 ± 0.2 mm
[7]; [28]
  Pupil Diameter: 6 ± 0.2 mm
[7]; [29]
  Pupil Diameter: 12 ± 0.2 mm
[7]; [30]
  Pupil Diameter: 12 ± 0.2 mm
[7]; [31]
  Pupil Diameter: 12 ± 0.2 mm
[7]; [32]
  Pupil Diameter: 12 ± 0.2 mm
[7]; [33]
  Pupil Diameter: 6 ± 0.2 mm
[7]; [34]
  Pupil Diameter: 6 ± 0.2 mm

## CN[C@@H](C)[C@H](O)c1ccccc1 [(−)-ephedrine]
[1]
  Dosage of Enantiomer that Raised Mean Arterial Pressure 10%, Rat: 30 µg
[2]
  Nasal airway pressure, Post Drug: 6.4 mm water
  Nasal airway pressure, Post Histamine: 8.2 ± 0.7 mm water
  Nasal airway pressure, Control: 6.7 ± 0.4 mm water
  Mean decrease in nasal airway pressure, % Change: −21.8%
[3]
  locomotor depressant effect (in words): did not cause locomotor depression
  locomotor stimulant effect (in words): increased locomotion
[3]; (−)-ephedrine: following 50 to 100 mg/kg
  onset of increased locomotion after injection: ≤ 40 min
[4]; [8]
  Mean Decrease in Nasal Airway Pressure: −1.0 ± 0.8 mm water
[4]; [9]
  Mean Decrease in Nasal Airway Pressure: −2.5 ± 1.5 mm water
[4]; [10]
  Mean Decrease in Nasal Airway Pressure: −1.9 ± 2.0 mm water
[4]
  Mean decrease in nasal airway pressure, % Change: −14%
  Nasal airway pressure, Post Drug: 6 ± 0.5 mm H2O
  Nasal airway pressure, Control: 7 ± 0.8 mm H2 O
[5]; topical 1% and 2%, rabbit, treated eye
  effect on IOP (in words): increased IOP
[6]
  Intravenous Dose Needed to Increase MAP 10%: 0.1 mg/kg
[7]; 1% solution
  Mydriatic Responses, TREATED EYE: 0
  Mydriatic Responses, UNTREATED EYE: 0
[7]; 2% solution
  Mydriatic Responses, TREATED EYE: +++ (+++ >4 mm change)
  Mydriatic Responses, UNTREATED EYE: +++ (+++ >4 mm change)
[7]; [11]
  Pupil Diameter: 6 ± 0.4 mm
[7]; [12]
  Pupil Diameter: 6 ± 0.4 mm
[7]; [13]
  Pupil Diameter: 6 ± 0.4 mm
[7]; [14]
  Pupil Diameter: 6 ± 0.4 mm
[7]; [15]
  Pupil Diameter: 6 ± 0.4 mm
[7]; [16]
  Pupil Diameter: 6 ± 0.4 mm
[7]; [17]
  Pupil Diameter: 6 ± 0.4 mm
[7]; [18]
  Pupil Diameter: 6 ± 0.4 mm
[7]; [19]
  Pupil Diameter: 6 ± 0.4 mm
[7]; [20]
  Pupil Diameter: 6 ± 0.4 mm
[7]; [21]
  Pupil Diameter: 6 ± 0.4 mm
[7]; [22]
  Pupil Diameter: 6 ± 0.4 mm
[7]; [23]
  Pupil Diameter: 9 ± 0.2 mm
[7]; [24]
  Pupil Diameter: 9 ± 0.2 mm
[7]; [25]
  Pupil Diameter: 9 ± 0.2 mm
[7]; [26]
  Pupil Diameter: 9 ± 0.2 mm
[7]; [27]
  Pupil Diameter: 5 ± 0.2 mm
[7]; [28]
  Pupil Diameter: 5 ± 0.2 mm
[7]; [29]
  Pupil Diameter: 9 ± 0.2 mm
[7]; [30]
  Pupil Diameter: 9 ± 0.2 mm
[7]; [31]
  Pupil Diameter: 9 ± 0.2 mm
[7]; [32]
  Pupil Diameter: 9 ± 0.2 mm
[7]; [33]
  Pupil Diameter: 5 ± 0.2 mm
[7]; [34]
  Pupil Diameter: 5 ± 0.2 mm
[7]; topical, rabbit
  mydriasis / effect on pupil diameter (in words): had no effect on pupil diameter

Reference: patent US6495529B1 (Warner-Lambert Company, priority 1998, dated 2002)
